The record followed here is publication PMC11595424, “Heterocycles and a Sorbicillinoid from the Coral-Derived Fungus Penicillium chrysogenum” (Marine Drugs, 2024).

What all share (format): cell-based
Assay [1] relates to K562 (human leukemia) cell line. Put plainly: Cytotoxicity assay, MTT method, K562. Particulars: for IC50: Homo sapiens, K562 cell line, MTT method; for Inhibition rate (%): Table S12, K562, IC50 rescreen. As to the method: (§1) The cytotoxic activity against the K562 (human leukemia) cell line was evaluated by MTT method, and the cytotoxic activities against L-02 (normal human hepatocytes), ASPC-1 (human pancreatic cancer), MDA-MB-231 (human breast cancer), NCI-H446, and NCI-H446/EP (human small cell lung cancer) cell lines were determined by SRB method. The difference between the two human small-cell lung cancer cell lines is that NCI-H446 is a sensitive cell line while the NCI-H446/EP cell line is resistant to cisplatin, etoposide, SN38, and doxorubicin. As a positive control, doxorubicin was used. […]
(§2) The cytotoxic activity against the K562 (human leukemia) cell line was evaluated by MTT method, and the cytotoxic activities against L-02 (normal human hepato-cytes), ASPC-1 (human pancreatic cancer), MDA-MB-231 (human breast cancer), NCI-H446 and NCI-H446/EP (human small cell lung cancer) cell lines were determined by SRB method.
(§3) Doxorubicin was used as a positive control.
(§4) In the cytotoxic assay, preliminary screening for cytotoxicity of compounds was performed at the concentration of 30 μM, then the compounds with inhibition rate greater than 60 % were rescreened for the IC 50 values. The blank control, vehicle control, positive control (doxorubicin) and compounds at five different concentrations (30, 15, 3.75, 1.875 and 0.9375 μM) were tested three times and the average OD values were taken to calculated IC50 values.
(§5) Table S11. Cytotoxic activities of 1−5
(§6) Compound c Inhibition rate (%) […]
a Doxorubicin was used as positive control.
Table S12. Cytotoxicity against K562 cell line of 5
For orientation: Formazan colour is commonly taken as a measure of viable cells.

For assay [2], the system named is L-02 (normal human hepatocytes). The assay can be described thus: Cytotoxicity assay, SRB method, L-02. Particulars: for IC50: Homo sapiens, L02, L-02 cells, SRB method. The protocol: as §1, §2, §3, §4, §5, §6
(§7) a Doxorubicin was used as positive control. […]
Background: In SRB staining, fixed cells bind dye roughly in proportion to their protein.

In assay [3] the test system is ASPC-1 (human pancreatic cancer). Put plainly: Cytotoxicity assay, SRB method, ASPC-1. Particulars: for IC50: Homo sapiens, ASPC1, ASPC-1 cells, SRB method. The protocol:
as §1, §2, §3, §4, §5, §6, §7

For assay [4], the system named is MDA-MB-231 (human breast cancer). Put plainly: Cytotoxicity assay, SRB method, MDA-MB-231. The settings on record: for IC50: Homo sapiens, MDA-MB-231 cells, SRB method. The protocol:
as §1, §2, §3, §4, §5, §6, §7

For assay [5], the system named is NCI-H446 (human small cell lung cancer) cell line. Put plainly: Cytotoxicity assay, SRB method, NCI-H446. Particulars: for IC50: Homo sapiens, NCI-H446 (sensitive) cells, SRB method; for Inhibition rate (%): Table S13, NCI-H446, IC50 rescreen. The protocol: as §1, §2, §3, §4, §5, §6, §7
Table S13. Cytotoxicity against NCI-H446 cell line of 5 c (μM) OD value Inhibition rate (%) IC 50 ( μM)

The subject of assay [6] is NCI-H446/EP (human small cell lung cancer) cell line. The assay can be described thus: Cytotoxicity assay, SRB method, NCI-H446/EP. Particulars: for IC50: Homo sapiens, NCI-H446/EP cells (resistant to cisplatin, etoposide, SN38, doxorubicin), SRB method. The protocol: as §1, §2, §3, §4, §5, §6, §7
Assay [7] has as its system K562 (human leukemia) cell line. Put plainly: Cytotoxicity assay, MTT method, K562. Particulars: Table S12, K562, IC50 rescreen, c 7.5 μM.
Assay [8] has as its system NCI-H446 (human small cell lung cancer) cell line. The assay can be described thus: Cytotoxicity assay, SRB method, NCI-H446. The settings on record: Table S13, NCI-H446, IC50 rescreen, c 7.5 μM.
The mark [9] stands for this setting: Table S11, preliminary screening, c 30 μM.
The mark [10] stands for this setting: Table S11, positive control, c 1 μM.

As usually defined, the IC50 is the concentration that inhibits the measured activity by half. A higher IC50 goes with lower potency. As for `Cc1c(O)cc(CCC(C)C(=O)O)c2ncsc12` (stereo not shown) [Compound 4, chrysobenzothiazole B], the IC50 in assay [1], in assay [2], in assay [3], in assay [4], in assay [5] and in assay [6] was > 30 µM each time. In assay [1] (setting [9]), the “Inhibition rate (%) K562” value is 37.63%. For the same compound, the “Inhibition rate (%) L-02” value in assay [2] (setting [9]) is recorded as -1.81%. Further, the “Inhibition rate (%) ASPC-1” value in assay [3] (setting [9]) was 8.56%. Also, the “Inhibition rate (%) MDA-MB-231” value in assay [4] (setting [9]) came out at 6.32%. Besides, the “Inhibition rate (%) NCI-H446” value in assay [5] (setting [9]) is 6.55%. Also, in assay [6] (setting [9]), the “Inhibition rate (%) NCI-H446/EP” value worked out at 7.13%.
In the case of `C/C=C/C=C/C(=O)c1cc(C)c(C(=O)O)c(C)c1O` [Compound 5, 4-Carboxylsorbicillin], the IC50 in assay [1] was 15 µM; in assay [2] it was > 30 µM; in assay [3], > 30 µM; in assay [4] it was > 30 µM; in assay [5], 16.9 µM; in assay [6] it was > 30 µM. For the same compound, the “Inhibition rate (%) K562” value in assay [1] (setting [9]) is reported as 97.15%. The “Inhibition rate (%)” value in assay [1] (c 0.9375 μM) is 8.60%; in assay [1] (c 1.875 μM), 7.71%; in assay [1] (c 3.75 μM), 13.35%; in assay [1] (c 15 μM), 47.36%; in assay [1] (c 30 μM), 77.22%; in assay [5] (c 0.9375 μM), -8.00%. Further, the “Inhibition rate (%)” value in assay [5] (c 1.875 μM) turned out to be 0.43%; in assay [5] (c 3.75 μM) it was 2.66%; in assay [5] (c 15 μM), 51.20%; in assay [5] (c 30 μM), 74.28%; in assay [7] it was 20.85%; in assay [8], 14.10%. The “Inhibition rate (%) L-02” value in assay [2] (setting [9]) is reported as 13.89%. Moreover, in assay [3] (setting [9]), the “Inhibition rate (%) ASPC-1” value is given as 25.47%. Also, the “Inhibition rate (%) MDA-MB-231” value in assay [4] (setting [9]) was -14.63%. Further, the “Inhibition rate (%) NCI-H446” value in assay [5] (setting [9]) turned out to be 86.08%. Also, the “Inhibition rate (%) NCI-H446/EP” value in assay [6] (setting [9]) was determined as 54.99%.
With `CC(c1nc2ccccc2c(=O)[nH]1)N1CCCC1=O` (stereo not shown) [Compound 2, Chrysoquinazolinone B], the IC50 in assay [1], in assay [2], in assay [3], in assay [4], in assay [5] and in assay [6] was > 30 µM throughout. For the same compound, in assay [1] (setting [9]), the “Inhibition rate (%) K562” value was determined as 33.57%. Also, the “Inhibition rate (%) L-02” value in assay [2] (setting [9]) is recorded as 0.28%. Besides, the “Inhibition rate (%) ASPC-1” value in assay [3] (setting [9]) was determined as 7.93%. The “Inhibition rate (%) MDA-MB-231” value in assay [4] (setting [9]) amounted to 5.80%. Besides, the “Inhibition rate (%) NCI-H446” value in assay [5] (setting [9]) was determined as 4.70%. Further, the “Inhibition rate (%) NCI-H446/EP” value in assay [6] (setting [9]) was found to be 12.47%.
Regarding `Cc1cc(O)c(CC[C@@H](C)C(=O)O)c2scnc12` [Compound 3a, Chrysobenzothiazole A], the IC50 in assay [1], in assay [2], in assay [3], in assay [4], in assay [5] and in assay [6] was > 30 µM throughout. For the same compound, the “Inhibition rate (%) K562” value in assay [1] (setting [9]) is recorded as 20.39%. The “Inhibition rate (%) L-02” value in assay [2] (setting [9]) was found to be 10.94%. Moreover, in assay [3] (setting [9]), the “Inhibition rate (%) ASPC-1” value is on record as 18.16%. In assay [4] (setting [9]), the “Inhibition rate (%) MDA-MB-231” value stood at 0.40%. Also, in assay [5] (setting [9]), the “Inhibition rate (%) NCI-H446” value is listed as 1.04%. In addition, the “Inhibition rate (%) NCI-H446/EP” value in assay [6] (setting [9]) is given as 11.04%.
On to `Cc1cc(O)c(CC[C@H](C)C(=O)O)c2scnc12` [Compound 3b, Chrysobenzothiazole A], for which the IC50 in assay [1], in assay [2], in assay [3], in assay [4], in assay [5] and in assay [6] was > 30 µM each time. Besides, the “Inhibition rate (%) K562” value in assay [1] (setting [9]) amounted to 34.54%. The “Inhibition rate (%) L-02” value in assay [2] (setting [9]) is recorded as -5.91%. In addition, in assay [3] (setting [9]), the “Inhibition rate (%) ASPC-1” value is listed as 2.09%. In addition, in assay [4] (setting [9]), the “Inhibition rate (%) MDA-MB-231” value is -4.16%. Further, the “Inhibition rate (%) NCI-H446” value in assay [5] (setting [9]) amounted to 9.14%. Besides, the “Inhibition rate (%) NCI-H446/EP” value in assay [6] (setting [9]) was found to be 14.64%.
As for `CC1C(CCc2nc3ccccc3c(=O)[nH]2)C2CC(=O)C1(C)C(=O)C2(C)O` (stereo not shown) [Compound 1, Chrysoquinazolinone A], the IC50 in assay [1], in assay [2], in assay [3], in assay [4], in assay [5] and in assay [6] was > 30 µM each time. Also, the “Inhibition rate (%) K562” value in assay [1] (setting [9]) turned out to be 35.08%. The “Inhibition rate (%) L-02” value in assay [2] (setting [9]) is reported as -0.42%. For the same compound, the “Inhibition rate (%) ASPC-1” value in assay [3] (setting [9]) was determined as 0.00%. Moreover, the “Inhibition rate (%) MDA-MB-231” value in assay [4] (setting [9]) is listed as -4.59%. Moreover, the “Inhibition rate (%) NCI-H446” value in assay [5] (setting [9]) turned out to be 2.22%. In assay [6] (setting [9]), the “Inhibition rate (%) NCI-H446/EP” value amounted to 9.68%.
On to `COc1cccc2c1C(=O)c1c(O)c3c(c(O)c1C2=O)C[C@@](O)(C(=O)CO)C[C@@H]3O[C@H]1C[C@H](N)[C@H](O)[C@H](C)O1` [Doxorubicin, reference compound], for which the IC50 is < 1 µM in assay [1]; < 1 µM in assay [2]; > 1 µM in assay [3]; < 1 µM in assay [4]; < 1 µM in assay [5]; > 1 µM in assay [6]. The “Inhibition rate (%) K562” value in assay [1] (setting [10]) worked out at 100.00%. Besides, the “Inhibition rate (%)” value in assay [1] (c 1 μM) was 100.00%. The “Inhibition rate (%) L-02” value in assay [2] (setting [10]) came to 87.67%. Further, in assay [3] (setting [10]), the “Inhibition rate (%) ASPC-1” value is reported as 29.65%. Moreover, the “Inhibition rate (%) MDA-MB-231” value in assay [4] (setting [10]) was determined as 65.37%. Also, in assay [5] (setting [10]), the “Inhibition rate (%) NCI-H446” value worked out at 52.20%. In addition, in assay [6] (setting [10]), the “Inhibition rate (%) NCI-H446/EP” value amounted to 27.60%.
